Experimental data as given in ChEMBL document CHEMBL1201862, “PubChem BioAssay data set” (2004).
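Tested at 5 concentrations; 48 h exposure; 96-well plates; endpoints linearly interpolated, else capped at highest concentration. At the GI50, growth is halved.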 The source made the active and inactive calls. No stated cut-off is given here; in the data, active = GI50 up to about 1.1 µM and inactive = higher.

What was measured:
Experiment in all cases: growth of human tumour cells (NCI), 48 h
MOLT-4 = tested on: MOLT-4
K562 = tested on: K562
HOP-92 = tested on: HOP-92
OVCAR-4 = tested on: OVCAR-4
SK-MEL-5 = tested on: SK-MEL-5
HCT-116 = tested on: HCT-116
SK-MEL-2 = tested on: SK-MEL-2
CCRF-CEM = tested on: CCRF-CEM
RXF 393 = tested on: RXF 393
SNB-19 = tested on: SNB-19
SNB-75 = tested on: SNB-75
ACHN = tested on: ACHN
UACC-257 = tested on: UACC-257
RPMI-8226 = tested on: RPMI-8226
UO-31 = tested on: UO-31
SF-539 = tested on: SF-539
SF-295 = tested on: SF-295
SK-MEL-28 = tested on: SK-MEL-28
NCI-H226 = tested on: NCI-H226
HL-60 = tested on: HL-60

Q: How did the GI50 (MOLT-4) turn out when `CCCCCCCCCCCCCCCCP(=O)([O-])OCC[N+](C)(C)C` was run?
A: 17.2 µM (inactive)

Q: And the GI50 (K562)?
A: 19 µM (inactive)

Q: What about the GI50 (HOP-92) of the same compound?
A: 15 µM (inactive)

Q: And the GI50 (OVCAR-4)?
A: 19.1 µM (inactive)

Q: What about the GI50 (SK-MEL-5) of the same compound?
A: 16 µM (inactive)

Q: And the GI50 (HCT-116)?
A: 14.8 µM (inactive)

Q: And the GI50 (SK-MEL-2)?
A: 15.1 µM (inactive)

Q: What about the GI50 (CCRF-CEM) of the same compound?
A: 8.47 µM (inactive)

Q: And the GI50 (RXF 393)?
A: 3.93 µM (inactive)

Q: And the GI50 (SNB-19)?
A: 30 µM (inactive)

Q: What about the GI50 (SNB-75) of the same compound?
A: 14.8 µM (inactive)

Q: And the GI50 (ACHN)?
A: 16.5 µM (inactive)

Q: What about the GI50 (UACC-257) of the same compound?
A: 16.9 µM (inactive)

Q: And the GI50 (RPMI-8226)?
A: 15.3 µM (inactive)

Q: What about the GI50 (UO-31) of the same compound?
A: 14.9 µM (inactive)

Q: And the GI50 (SF-539)?
A: 24.5 µM (inactive)

Q: And the GI50 (SF-295)?
A: 12.9 µM (inactive)

Q: What about the GI50 (SK-MEL-28) of the same compound?
A: 18.5 µM (inactive)

Q: And the GI50 (NCI-H226)?
A: 23 µM (inactive)

Q: What does the source list for `CC(C)(C)OC(=O)NC(Cc1ccccc1)C(=O)N[C@H]1c2ccsc2/C(=N/O)[C@H]1O` (some centres undefined)?
A: GI50 (MOLT-4): 83 µM (inactive); GI50 (K562): > 100 µM (inactive); GI50 (HOP-92): > 100 µM (inactive); GI50 (OVCAR-4): 35.2 µM (inactive); GI50 (SK-MEL-5): > 100 µM (inactive); GI50 (HCT-116): > 100 µM (inactive); GI50 (SK-MEL-2): > 100 µM (inactive); GI50 (CCRF-CEM): > 100 µM (inactive); GI50 (RXF 393): > 100 µM (inactive); GI50 (SNB-19): > 100 µM (inactive); GI50 (UACC-257): > 100 µM (inactive); GI50 (UO-31): > 100 µM (inactive); GI50 (SF-539): > 100 µM (inactive); GI50 (HL-60): 86.1 µM (inactive); GI50 (SF-295): > 100 µM (inactive); GI50 (NCI-H226): > 100 µM (inactive)

Q: Which results are given for `COC(=O)c1cc2c3c(cc(N(C)C)c2[nH]1)N(C(=O)c1cc2cc(OC)c(OC)c(OC)c2[nH]1)CC3CCl` (centres undefined)?
A: GI50 (MOLT-4): < 0.0025 µM (active); GI50 (K562): 0.00317 µM (active); GI50 (HOP-92): 0.0041 µM (active); GI50 (OVCAR-4): 0.00745 µM (active); GI50 (SK-MEL-5): 0.00333 µM (active); GI50 (HCT-116): < 0.0025 µM (active); GI50 (SK-MEL-2): 0.00762 µM (active); GI50 (CCRF-CEM): 0.00403 µM (active); GI50 (RXF 393): < 0.0025 µM (active); GI50 (SNB-19): 0.00775 µM (active); GI50 (SNB-75): 0.0042 µM (active); GI50 (ACHN): < 0.0025 µM (active); GI50 (UACC-257): 0.00476 µM (active); GI50 (RPMI-8226): 0.00432 µM (active); GI50 (UO-31): 0.00316 µM (active); GI50 (SF-539): 0.00653 µM (active); GI50 (SF-295): 0.00379 µM (active); GI50 (SK-MEL-28): 0.00641 µM (active); GI50 (NCI-H226): 0.00362 µM (active)

Q: For `CC1C(/C=C/c2ccoc2)ON2CCCC12` (centres undefined), which GI50 (HOP-92) is on record?
A: 17.8 µM (inactive)

Q: And the GI50 (OVCAR-4)?
A: > 100 µM (inactive)

Q: And the GI50 (SK-MEL-2)?
A: > 100 µM (inactive)

Q: What about the GI50 (RXF 393) of the same compound?
A: 35.6 µM (inactive)

Q: And the GI50 (SNB-19)?
A: > 100 µM (inactive)

Q: What about the GI50 (SNB-75) of the same compound?
A: > 100 µM (inactive)

Q: And the GI50 (ACHN)?
A: > 100 µM (inactive)

Q: And the GI50 (UACC-257)?
A: > 100 µM (inactive)

Q: What about the GI50 (UO-31) of the same compound?
A: > 100 µM (inactive)

Q: And the GI50 (SF-539)?
A: > 100 µM (inactive)

Q: What about the GI50 (HL-60) of the same compound?
A: > 100 µM (inactive)

Q: And the GI50 (SF-295)?
A: > 100 µM (inactive)

Q: What about the GI50 (SK-MEL-28) of the same compound?
A: > 100 µM (inactive)

Q: And the GI50 (NCI-H226)?
A: > 100 µM (inactive)

Q: With `CCN(CC)CCNC(=O)c1cc2cc(NC(=O)c3cc4cc(NC(=O)c5cc6cc(N)ccc6[nH]5)ccc4[nH]3)ccc2[nH]1` as the compound, how does the GI50 (MOLT-4) read?
A: > 100 µM (inactive)

Q: And the GI50 (K562)?
A: > 100 µM (inactive)

Q: What about the GI50 (HOP-92) of the same compound?
A: > 100 µM (inactive)

Q: What about the GI50 (OVCAR-4) of the same compound?
A: > 100 µM (inactive)

Q: What about the GI50 (SK-MEL-5) of the same compound?
A: > 100 µM (inactive)

Q: And the GI50 (SK-MEL-2)?
A: > 100 µM (inactive)

Q: What about the GI50 (CCRF-CEM) of the same compound?
A: > 100 µM (inactive)

Q: What about the GI50 (RXF 393) of the same compound?
A: > 100 µM (inactive)

Q: What about the GI50 (SNB-19) of the same compound?
A: > 100 µM (inactive)

Q: And the GI50 (SNB-75)?
A: > 100 µM (inactive)

Q: What about the GI50 (ACHN) of the same compound?
A: > 100 µM (inactive)

Q: What about the GI50 (UACC-257) of the same compound?
A: > 100 µM (inactive)

Q: And the GI50 (RPMI-8226)?
A: > 100 µM (inactive)

Q: And the GI50 (UO-31)?
A: > 100 µM (inactive)

Q: What about the GI50 (SF-295) of the same compound?
A: > 100 µM (inactive)

Q: And the GI50 (SK-MEL-28)?
A: > 100 µM (inactive)

Q: And the GI50 (NCI-H226)?
A: > 100 µM (inactive)

Q: Which GI50 (MOLT-4) does the source give for `COC(CC1(/C=C/O[Si](C(C)C)(C(C)C)C(C)C)C(=O)N(COCC[Si](C)(C)C)c2ccccc21)OC` (centres undefined) here?
A: 22.1 µM (inactive)

Q: And the GI50 (K562)?
A: > 100 µM (inactive)

Q: What about the GI50 (HOP-92) of the same compound?
A: 9.48 µM (inactive)

Q: And the GI50 (OVCAR-4)?
A: 20.8 µM (inactive)

Q: What about the GI50 (SK-MEL-5) of the same compound?
A: 23.1 µM (inactive)

Q: And the GI50 (HCT-116)?
A: 16.1 µM (inactive)

Q: And the GI50 (SK-MEL-2)?
A: 13.3 µM (inactive)

Q: And the GI50 (CCRF-CEM)?
A: 13.4 µM (inactive)

Q: And the GI50 (RXF 393)?
A: 3.9 µM (inactive)

Q: And the GI50 (SNB-19)?
A: 33.7 µM (inactive)

Q: And the GI50 (SNB-75)?
A: 81.8 µM (inactive)

Q: And the GI50 (ACHN)?
A: 26.6 µM (inactive)

Q: What about the GI50 (UACC-257) of the same compound?
A: 25.5 µM (inactive)

Q: And the GI50 (RPMI-8226)?
A: > 100 µM (inactive)

Q: And the GI50 (UO-31)?
A: 76 µM (inactive)

Q: What about the GI50 (SF-539) of the same compound?
A: 15.1 µM (inactive)

Q: What about the GI50 (SF-295) of the same compound?
A: 7.96 µM (inactive)

Q: And the GI50 (SK-MEL-28)?
A: 16.6 µM (inactive)

Q: And the GI50 (NCI-H226)?
A: > 100 µM (inactive)

Q: What does the source list for `COC(C(O)c1ccc2c(c1)OCO2)P(=O)(c1ccccc1)c1ccccc1` (centres undefined)?
A: GI50 (MOLT-4): > 100 µM (inactive); GI50 (K562): 60.3 µM (inactive); GI50 (HOP-92): 68.2 µM (inactive); GI50 (OVCAR-4): 11.1 µM (inactive); GI50 (SK-MEL-5): > 100 µM (inactive); GI50 (HCT-116): > 100 µM (inactive); GI50 (SK-MEL-2): > 100 µM (inactive); GI50 (CCRF-CEM): > 100 µM (inactive); GI50 (RXF 393): 81.7 µM (inactive); GI50 (SNB-19): > 100 µM (inactive); GI50 (SNB-75): 35.9 µM (inactive); GI50 (ACHN): > 100 µM (inactive); GI50 (UACC-257): > 100 µM (inactive); GI50 (UO-31): > 100 µM (inactive); GI50 (SF-539): > 100 µM (inactive); GI50 (HL-60): > 100 µM (inactive); GI50 (SF-295): > 10 µM (inactive); GI50 (SK-MEL-28): > 100 µM (inactive); GI50 (NCI-H226): 73.1 µM (inactive)

Q: With `c1ccc(N/N=C2\NN=C(c3ccccc3)CS2)cc1` as the compound, how does the GI50 (MOLT-4) read?
A: 3.66 µM (inactive)

Q: What about the GI50 (K562) of the same compound?
A: 3.34 µM (inactive)

Q: And the GI50 (HOP-92)?
A: 11.3 µM (inactive)

Q: And the GI50 (HCT-116)?
A: 3.8 µM (inactive)

Q: What about the GI50 (SK-MEL-2) of the same compound?
A: 18.2 µM (inactive)

Q: And the GI50 (CCRF-CEM)?
A: 3.17 µM (inactive)

Q: What about the GI50 (RXF 393) of the same compound?
A: 7.8 µM (inactive)

Q: And the GI50 (SNB-19)?
A: 19.3 µM (inactive)

Q: And the GI50 (ACHN)?
A: 4.38 µM (inactive)

Q: And the GI50 (UACC-257)?
A: 16 µM (inactive)

Q: What about the GI50 (UO-31) of the same compound?
A: 12.9 µM (inactive)

Q: What about the GI50 (SF-539) of the same compound?
A: 18.1 µM (inactive)

Q: What about the GI50 (HL-60) of the same compound?
A: 3.58 µM (inactive)

Q: What about the GI50 (SF-295) of the same compound?
A: 7.46 µM (inactive)

Q: What about the GI50 (SK-MEL-28) of the same compound?
A: 16.3 µM (inactive)

Q: And the GI50 (NCI-H226)?
A: 16 µM (inactive)
